# pKd: −log10 of the molar value.
# Tests used:
# sickle red blood cells = test: Antisickling study with human sickle blood under 2.5% oxygen; type: cell-based; conditions: Homo sapiens, Erythrocyte, sickle RBCs, 2.5% oxygen, read-out: sickling inhibition
# Experimental: Blood suspensions from subjects with homozygous SCD (resuspended in Hemox™ buffer to a final hematocrit 20%) were incubated under air in the absence or presence of the compounds (0.5 mM, 1 mM and 2 mM) at 37° C. for 1 h to ensure that binding had attained equilibrium. The suspensions were then incubated under hypoxic conditions (2.5% oxygen/97.5% nitrogen) at 37° C. for 1 h. Aliquot samples were fixed with 2% glutaraldehyde solution without exposure to air, and then subjected to microscopic morphological analysis of bright field images (at 40× magnification) of single layer cells on an Olympus BX40 microscope fitted with an Infinity Lite B camera (Olympus), and the coupled Image Capture software. The residual samples were washed in phosphate-buffer saline, and hemolyzed in hypotonic lysis buffer for subsequent Hb-modification and oxygen equilibrium analyses.
# The studies described above were conducted using normal whole blood. Next, we investigated whether the improvement in Hb oxygen affinity and the compounds sustained activity also translated to similar effects in SS blood from SCD patients. […] At 1 mM, PP8 and PP9 inhibited nearly 100% of sickling, while PP2, PP6, PP14 inhibited sickling by more than 70%. […] It is clear that the modifications of the present compounds has led to significant improvement in antisickling activity.
# Hb [1] = biological target: T1, Hb (Homo sapiens, UniProt P69905); test: Affinity (KD) for Hb; type: binding
# T1 sequence (P69905 2-142 limits assumed): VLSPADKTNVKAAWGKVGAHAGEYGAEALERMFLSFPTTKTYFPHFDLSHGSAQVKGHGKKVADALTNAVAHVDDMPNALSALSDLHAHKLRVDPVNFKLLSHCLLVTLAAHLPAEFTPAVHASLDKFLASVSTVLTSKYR
# T1 sequence (P68871 2-147 partner limits assumed): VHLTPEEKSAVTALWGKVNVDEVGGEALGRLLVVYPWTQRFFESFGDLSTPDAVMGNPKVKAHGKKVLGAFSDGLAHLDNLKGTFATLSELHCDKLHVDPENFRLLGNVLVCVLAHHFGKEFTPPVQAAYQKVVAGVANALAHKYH
# Hb [2] = biological target: T1, Hb; test: Oxygen equilibrium curve (OEC) studies with normal whole blood; type: cell-based; design: Hemoglobin modification, studies using non-sickling AA blood; from tissue; host or cells: non-sickling (AA) human blood, red blood cells; conditions: normal whole blood, 0.5, 1, 2 mM
# In short: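 Whole human blood at 30% hematocrit incubated with compound at 0.5, 1.0 or 2.0 mM (DMSO) or without. After equilibration, pO2 and sO2 measured by automated blood gas analyser across saturation levels, and the oxygen equilibrium curve fitted by nonlinear regression.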
# Hb [3] = biological target: T1, Hb; test: Drug partitioning studies, fixed and unfixed Hb adducts in non-sickling AA blood; type: cell-based; design: Hemoglobin modification, studies using non-sickling AA blood; from tissue; host or cells: non-sickling (AA) human blood, red blood cells; conditions: 2 mM
# In short: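 Non-sickling blood was incubated with test molecules and lysed either in water (unfixed) or in 50 mM sodium borohydride (fixed). Hb adducts were quantified by cation-exchange HPLC as a fraction of total Hb. The partitioning ratio is fixed over unfixed modification and reflects intracellular Hb binding after RBC membrane permeation.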
# Hb [4] = biological target: T2, Hb (Mus musculus, UniProt P01942); test: In vivo Hb oxygen affinity shift (Δp50) in wild-type mice; design: species or system C57BL/6 mice; conditions: for increase in Hb affinity (Δp50): IP 150 mg/kg
# T2 construct: from tissue; host or cells: blood (red cell lysates) of dosed C57BL/6 mice
# T2 sequence (P01942 2-142 limits assumed): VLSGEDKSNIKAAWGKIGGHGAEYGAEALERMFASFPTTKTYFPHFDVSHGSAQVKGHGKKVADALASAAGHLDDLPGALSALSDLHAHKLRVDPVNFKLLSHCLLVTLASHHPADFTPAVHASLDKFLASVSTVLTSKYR
# T2 sequence (P02088 2-147 partner limits assumed): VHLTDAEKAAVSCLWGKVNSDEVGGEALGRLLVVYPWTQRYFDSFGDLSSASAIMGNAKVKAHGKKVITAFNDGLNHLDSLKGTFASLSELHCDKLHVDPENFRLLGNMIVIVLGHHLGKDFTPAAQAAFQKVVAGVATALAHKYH
# Experimental: We tested in vivo pharmacologic (pharmacodynamics) effects of select PP compounds in C57BL/6 mice. The animals were treated with a single intraperitoneal (IP) (150 mg/kg body weight) dose of PP6, PP10, PP14, and TD7, which were formulated with 30% PEG300. Blood samples were obtained prior to treatment (0) and 1, 3 and 6 h post-treatment, via submandibular bleeding, and subjected to hemolysis using standard methods. Clarified lysates, free of cell debris and red blood cell ghosts were analyzed by cation-exchange HPLC to determine the levels of drug-modified hemoglobin (adducts); and to conduct oxygen equilibrium studies to determine degrees of shift in p50 values using methodologies described earlier for in vitro studies on human samples. In a subsequent follow-up experiment, a new excipient obtained from Catalent Pharma Solutions was also used to formulate PP14 and used for a single intraperitoneal (IP) and oral (150 mg/kg body weight) dose. Blood samples were obtained prior to treatment (0) and 1, 3 or 5 h post-treatment, via submandibular bleeding, and used to determine the levels of drug-modified hemoglobin (adducts); and to conduct oxygen equilibrium studies to determine degrees of shift in p50 values as described above.
smiles,measurement,setting,value
"COC(=O)c1ccc(COc2cccc(O)c2C=O)cn1 [PP14, Methyl 5-((2-formyl-3-hydroxyphenoxy)methyl)picolinate]",inhibition at 500 µM,sickle red blood cells; 0.5 mM,> 35%
same,inhibition at 1000 µM,sickle red blood cells; 1 mM,> 70%
same,pKd,Hb [1],3.82
same,effect on Hb oxygen binding property (OEC),Hb [2],most significant activities
same,Fixed Adducts (%),Hb [3]; 6 biological replicates,96.1 ± 1.1%
same,Unfixed Adduct (%),Hb [3]; 6 biological replicates,91.8 ± 11.6%
same,Partitioning Ratio (%),Hb [3]; fixed relative to unfixed adducts,102.2 ± 8.0%
same,increase in Hb affinity (Δp50),Hb [4]; 30% PEG300,12%
same,increase in Hb affinity (Δp50),"Hb [4]; Catalent excipient, 5 hr",43.5±7.7%
same,increase in Hb oxygen affinity (Δp50),"Hb [4]; oral gavage 150 mg/kg, Catalent excipient",10.3±1.5%

# Reference: patent US20240109843A1, “BENZALDEHYDE COMPOUNDS WITH DIRECT POLYMER DESTABILIZING EFFECTS TO TREAT SICKLE CELL DISEASE” (VIRGINIA COMMONWEALTH UNIVERSITY, priority 2018, published 2024)
